Results from paper PMC11141866, “Pyrimidine depletion enhances targeted and immune therapy combinations in acute myeloid leukemia” (JCI Insight, 2024).
Values joined by “and” are separate entries in the source; they are usually repeats but may differ in a detail not shown here. Equal entries are not always repeated. Where two headings read alike, the source gives them in different places.

Assays:
[1] = biological target: T1, human DHODH (hDHODH, amino acid residues 31-395) (Homo sapiens, UniProt Q02127); assay: Cell-free human DHODH enzyme inhibition assay; format: biochemical
T1 construct: purchased Reaction Biology (assay run there as a service)
Method: Details are described in the Supplemental Methods. […]
Enzyme inhibition of human DHODH […]
performed at Reaction Biology (Malvern, PA, USA). Briefly, a two-step fluorescence-based assay was used to test compounds in duplicates using a 10-dose IC50 mode with 3-fold serial dilution starting at 1 µM or 10 µM. The enzymatic step for hDHODH (used at […]
to orotate and followed by resazurin (used at 60 or 80 µM per reaction) catalyzed to […]
resorufin. […]

[2] = system: primary AML samples; assay: MTS proliferation assay, primary AML samples; format: cell-based, human; parameters: MTS proliferation data value: unit not given here; conditions: 96 h; for MTS proliferation data value: replicates; for IC50: Homo sapiens
Method: A total of 10,000–20,000 cells from different AML lines or 50,000–75,000 cells of primary AML blasts were treated in a 96-well plate for 72 hours or 96 hours at 37°C, 5% CO2. CellTiter 96 Aqueous MTS reagent (Promega) was added to cells followed by a 3-hour incubation at 37°C, 5% CO2. The absorbance was measured at 490 nm using DTX 880 plate reader, and the IC50 was calculated using GraphPad Prism.

[3] = system: primary AML patient sample; assay: Flow cytometry CD11b/CD14 differentiation, primary AML long-term culture; format: cell-based, human; conditions: 7 days LTC
Method: Cells were thawed in 50% FBS RPMI and then cultured in StemSpan (StemCell Technologies) media supplemented with human FLT3L, SCF, GM-CSF, G-CSF, IL-3, IL-6, TPO, and EPO cytokines for 7 days (LTC).
After 72 hours or 7 days of treatment of DHODHi, cells were collected and washed with PBS, blocked with human Fc block (BioLegend), and stained with antibodies for 30 minutes on ice. Antibodies were washed off and cells resuspended in FACS buffer (2% FBS, 2 mM NaN3, Dulbecco’s PBS) for analysis using BD LSRFortessa or Cytek Aurora spectral flow cytometer. Live/dead exclusion was done using LIVE/DEAD Fixable Near-IR (Invitrogen). All antibodies were purchased from BioLegend except CD47, which was purchased from BD Biosciences: CD11b clone M1/70, CD38 clone HIT2, CD14 clone M5E2, CD47 clone B6H12, CD33 clone WM53, CD3 clone UCHT1, CD19 clone HIB19, and CD45 clone HI30.
Supplemental Figure S.2. […] A).
Flow cytometry analysis of viable primary AML patient samples (n=10) treated in vitro for seven days (long term culture, LTC). Live cells were measured using LIVE/DEAD™ Fixable Near-IR (NIR) gated on singlet cells. […] Images were taken using BioTek Cytation 5 Cell Imaging Multimode Reader at 20x magnification. […]

[4] = system: MV4-11 AML target cells; assay: Murine BMDM phagocytosis of MV4-11 cells (ADCP); format: cell-based, human
Method: Supplemental Figure S.9. A) Murine bone marrow derived macrophages (BMDM, effector cells) were generated from harvested bone marrow cells grown in the presence of 20ng/ml murine M-CSF for 7-8 days where media was refreshed on day 3. After BMDM generation, they were collected and stained […]
with CFDA-SE (green). […]
and stained with CTV (blue). Green BMDM cells were then co-cultured for 4 h with blue MV4-11 AML cells in the presence of 10 µg/ml isotype IgG1 or anti-CD47 antibody at 1:1 E:T ratio in an ultra-low binding tissue culture plate. Cells were then collected and analyzed using flow cytometry to quantify percentage of phagocytosed cells indicated by viable F4/80+CFDA+CTV+ cells (n=6). Adjusted FDR p-value *<0.05, ***≤0.0001, nonsignificant (ns) ≥0.05. B) Representative florescent microscopy images were taken using 20x objective to visualize antibody dependent cellular phagocytosis (ADCP). Prior to imaging, the wells were rinsed three time to remove MV4-11 target cells in suspension and allow the imaging of adherent effector cells (green BMDM) and residual blue MV4 -11 target cells. The outlined area in the red box is manually enlarged.
(1 picture or pasted object on this page, not shown here)

[5] = biological target: CYP 1A2 (Homo sapiens, UniProt P05177); assay: CYP inhibition 1A2; format: in vitro ADME
Excerpt: (§1) Supplement jciinsight-9-173646-s083.xlsx, sheet "Supplemental Table S.2." | column: HOSU-53

[6] = Protein binding, AAG; format: in vitro ADME; conditions: 0.07% AAG
Excerpt: as §1

[7] = HOSU-53 plasma exposure in MOLM-13 tumor-bearing mice; format: in vivo, NCG mice; conditions: 10 mpk PO, female mice, per mouse, 10 mg/kg

T1 sequence (Q02127 31-395): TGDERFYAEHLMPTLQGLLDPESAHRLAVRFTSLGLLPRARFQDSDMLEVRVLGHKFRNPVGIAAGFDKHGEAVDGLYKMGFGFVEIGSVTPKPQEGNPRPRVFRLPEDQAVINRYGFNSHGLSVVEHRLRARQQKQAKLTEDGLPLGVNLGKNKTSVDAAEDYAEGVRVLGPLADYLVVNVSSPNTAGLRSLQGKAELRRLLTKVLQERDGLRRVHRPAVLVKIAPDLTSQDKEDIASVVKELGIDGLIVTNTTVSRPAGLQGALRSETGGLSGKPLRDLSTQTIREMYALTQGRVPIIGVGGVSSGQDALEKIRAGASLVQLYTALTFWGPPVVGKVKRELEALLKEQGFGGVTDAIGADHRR
Chain of CYP 1A2 (P05177 whole entry): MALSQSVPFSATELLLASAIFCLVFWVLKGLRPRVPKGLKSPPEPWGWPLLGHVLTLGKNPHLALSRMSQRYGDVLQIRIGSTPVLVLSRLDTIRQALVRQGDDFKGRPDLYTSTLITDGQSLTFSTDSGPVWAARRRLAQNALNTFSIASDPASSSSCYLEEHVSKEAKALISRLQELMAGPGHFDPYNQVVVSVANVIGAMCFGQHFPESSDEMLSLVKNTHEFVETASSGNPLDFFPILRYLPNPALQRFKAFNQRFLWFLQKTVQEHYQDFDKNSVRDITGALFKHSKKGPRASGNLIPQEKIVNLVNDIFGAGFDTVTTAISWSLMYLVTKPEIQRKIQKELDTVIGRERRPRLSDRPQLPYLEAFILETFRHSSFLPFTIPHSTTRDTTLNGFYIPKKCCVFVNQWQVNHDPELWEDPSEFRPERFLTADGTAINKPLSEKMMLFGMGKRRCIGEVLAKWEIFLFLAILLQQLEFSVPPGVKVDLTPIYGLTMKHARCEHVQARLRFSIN

CCCCOc1cccc(-c2ccc(-c3cc(C(=O)O)c4cc(F)ccc4n3)cc2)c1 [HOSU-53]
IC50 ([1]; cell-free multi-species assay, n=1, read-out: DHODH IC50 Human): 0.69 nM | IC50 ([1]; cell-free, HOSU-53, BAY, BRQ averaged from 6, 10, 4 replicates, read-out: hDHODH IC50): 0.95 nM | MTS proliferation data value ([2]; 0.25 µM, Pt.1): 18.4884 and 20.0581 and 18.3139 | MTS proliferation data value ([2]; 0.25 µM, Pt.2): 32.3851 (2×) and 33.2604 | MTS proliferation data value ([2]; 0.25 µM, Pt.3): 55.8692 and 53.1947 | MTS proliferation data value ([2]; 0.25 µM, Pt.4): 65.8976 and 67.7546 and 63.7029 | MTS proliferation data value ([2]; 0.25 µM, Pt.5): 79.2706 and 80.6142 and 76.9674 | MTS proliferation data value ([2]; 0.25 µM, Pt.6): 33.7613 and 67.7492 and 73.4139 | MTS proliferation data value ([2]; 0.25 µM, Pt.7): 62.3298 and 55.7489 and 55.295 | MTS proliferation data value ([2]; 0.25 µM, Pt.8): 107.765 and 102.823 and 101.765 | MTS proliferation data value ([2]; 0.5 µM, Pt.1): 16.3954 and 17.2674 and 16.2209 | MTS proliferation data value ([2]; 0.5 µM, Pt.2): 27.5711 and 28.884 and 28.2276 | MTS proliferation data value ([2]; 0.5 µM, Pt.3): 49.3314 and 49.0342 and 46.211 | MTS proliferation data value ([2]; 0.5 µM, Pt.4): 54.2487 and 57.2876 and 57.4564 | MTS proliferation data value ([2]; 0.5 µM, Pt.5): 73.1286 and 69.0979 and 69.2898 | MTS proliferation data value ([2]; 0.5 µM, Pt.6): 55.9668 and 65.2568 and 57.5529 | MTS proliferation data value ([2]; 0.5 µM, Pt.7): 44.4024 and 40.0908 and 37.1407 | MTS proliferation data value ([2]; 0.5 µM, Pt.8): 86.9412 and 90.8235 and 88.3529 | MTS proliferation data value ([2]; 0.75 µM, Pt.1): 15 and 14.4767 and 15.1744 | MTS proliferation data value ([2]; 0.75 µM, Pt.2): 23.4136 and 22.1007 and 24.5077 | MTS proliferation data value ([2]; 0.75 µM, Pt.3): 39.8217 and 43.685 and 41.9019 | MTS proliferation data value ([2]; 0.75 µM, Pt.4): 52.2229 (2×) and 53.7423 | MTS proliferation data value ([2]; 0.75 µM, Pt.5): 64.4914 and 65.8349 (2×) | MTS proliferation data value ([2]; 0.75 µM, Pt.6): 26.5106 and 39.426 and 36.7069 | MTS proliferation data value ([2]; 0.75 µM, Pt.7): 37.1407 and 39.8638 and 33.2829 | MTS proliferation data value ([2]; 0.75 µM, Pt.8): 77.0588 (2×) and 79.1765 | MTS proliferation data value ([2]; 1 µM, Pt.1): 14.4767 and 15.5233 and 13.7791 | MTS proliferation data value ([2]; 1 µM, Pt.2): 21.663 (2×) and 22.9759 | MTS proliferation data value ([2]; 1 µM, Pt.3): 40.1189 and 38.633 and 39.5245 | MTS proliferation data value ([2]; 1 µM, Pt.4): 47.327 and 51.7164 and 51.5476 | MTS proliferation data value ([2]; 1 µM, Pt.5): 64.6833 and 63.5317 and 66.6027 | MTS proliferation data value ([2]; 1 µM, Pt.6): 19.0332 and 30.5891 and 31.9486 | MTS proliferation data value ([2]; 1 µM, Pt.7): 33.9637 and 32.6021 and 29.879 | MTS proliferation data value ([2]; 1 µM, Pt.8): 72.1176 and 72.8235 (2×) | MTS proliferation data value ([2]; 5 µM, Pt.1): 14.3023 | MTS proliferation data value ([2]; 5 µM, Pt.4): 43.444 and 45.8075 and 44.1193 | MTS proliferation data value ([2]; 5 µM, Pt.8): 55.5294 | IC50 ([2]; n = 8 samples, 96-hour treatment, read-out: median IC50 in primary AML patient samples): 120 nM | IC50 ([2]; read-out: IC50 [95% CI], Pt. 1, 96-hour treatment): 23 nM | IC50 ([2]; read-out: IC50 [95% CI], Pt. 2, 96-hour treatment): 103 nM | IC50 ([2]; read-out: IC50 [95% CI], Pt. 3, 96-hour treatment): 85 nM | IC50 ([2]; read-out: IC50 [95% CI], Pt. 4, 96-hour treatment): 112 nM | IC50 ([2]; read-out: IC50 [95% CI], Pt. 5, 96-hour treatment): 129 nM | IC50 ([2]; read-out: IC50 [95% CI], Pt. 6, 96-hour treatment): 155 nM | IC50 ([2]; read-out: IC50 [95% CI], Pt. 7, 96-hour treatment): 169 nM | IC50 ([2]; read-out: IC50 [95% CI], Pt. 8, 96-hour treatment): 584 nM | CD11b+CD14+ cells [3]: increased | CDFA+F4/80+CTV+ ([4]; 25nM HOSU53 + IgG1, six replicate columns, DMSO + IgG1 control 3.5-16.7): 31.4 and 44.6 and 23.1 and 30.2 and 23.9 and 17.1 | phagocytosis of AML cells by murine BMDM in presence of B6H12 antibody ([4]; 72-hour HOSU-53 (10nM) pretreatment of MV4-11, 10 µg/ml anti-CD47): greatly enhanced phagocytosis | IC50 [5]: 19600 nM | fraction unbound [6]: 0.015 | HOSU-53 AUCall ([7]; Day 1): 2462.63 µM·h and 1961.3 µM·h | HOSU-53 AUCall ([7]; Day 14): 3818.57 µM·h and 3432.74 µM·h
